For data set [1], the system named is dsDNACT. Nature of the data set: Thermal melting analysis of dsDNACT. Type of data set: binding, calf. As to the method: Thermal melting analysis was performed on a Jasco J-810 spectropolarimeter equipped with a Jasco CDF-426S peliter controller and a Thermo Haake WKL 26 water recirculator. It was measured at a concentration of 45 µM of dsDNACT with and without 1.8 µM of 6-TramTO-3 in 10 mM Tris pH 7.5. The measurement was performed at 260 nm, with a response of 2 s, a band width of 10 nm, from 40-95°C, a slope of 2°C/min. Three independent measurements were recorded and the intensity normalized.

Data set [2] has as its target dsDNAhAT (double-stranded DNA hairpin with the consensus sequence ATTA). Nature of the data set: Fluorescence titration with hairpin dsDNAhAT, binding affinity by DynaFit. Particulars: 1 µM dye in 10 mM Tris pH 7.6 and 50 mM KCI, 20°C, emission at 647 nm, 1:1 binding model, read-out: binding affinity (KD, apparent dissociation constant). As to the method:
(§1) Fluorescence measurements and tritations were performed on a Jasco FP-6500 spectrofluorometer equipped with a Thermo Haake WKL 26 water recirculator at 20°C. Unless otherwise noted, a 1400 µL fluorescence cuvette of HellmaAnalytics (104F-QS) was used and the measurements were performed with the following settings: increment: 1.0 nm; integration time: 0.2 s; speed: 500 nm/min; sensitivity: medium; excitation slit width: 3 nm; emission slit width: 3 nm; excitation wavelength 610 nm. The emission spectra were recorded from 625 to 750 nm at 20°C. From all spectra, the corresponding background signal was substracted. […] Table 1: Binding sites and sequences of DNA hairpins, which were used for fluorescence titrations experiments.
(§2) All fluorescence titrations followed the same procedure: to 1 mL of 1 µM solution of corresponding cyanine dye derivative in 10 mM Tris pH 7.6 and 50 mM KCI aliquots of a stock solution of the corresponding annealed DNA (dsDNAhAT and dsDNAhGC = 435 µM; dsDNACT = 0.65 mM) were successively added and the fluorescence spectra were recorded in a range from 625-750 nm after 1 min of each addition. […] The fluorescence emission plotted is the resulting mean of the three independent measurements. […]
(§3) All binding affinities were determined by fitting the obtained experimental data in the DynaFit 4.0 software. […]

Data set [3] relates to dsDNACT. The experiment in a line: Fluorescence quantum yield with dsDNACT. Type of data set: physicochemical, calf. Particulars: with dsDNACT (30 eq.); 10 mM Tris pH 7.6 and 50 mM KCI, 25°C; reference dye Alexa Fluor 647. As for the experimental part:
Fluorescence intensity values for the quantum yields were determined on an ISS PC1 spectrofluorometer with an ISS 11650 lamp connected to an ISS Simpson model 109 and an ISS 80011 photomulitplier connected to a MGW Lauda K2R D and an Amherst Scientific Corp. 7600F for cooling. A VWR Refrigerated Circ 1160S was connected for the cooling of the cuvette chamber. It was measured in a 1400 µL fluorescence cuvette of HellmaAnalytics (104F-QS) at 25°C using the following settings: increment: 2.0 nm; integration time: 1.0 s; excitation slit width: 0.25 mm; emission slit width: 0.5 mm; excitation wavelength 590 nm. The emission spectra were recorded from 610 to 750 nm. From all spectra the corresponding background signal was substracted. Absorbance values were measured on a Jasco V-650 UV-Vis Spectrophotometer equipped with a Jasco PAC-743 temperature controlled cell holder and a Julabo F250 cooling system. […] The values for the reference compounds were measured in duplicates, the ones for 6-TramTO-3 with and without dsDNACT in triplicates. The quantum yields of 6-TramTO-3 with (30 eq.) and without dsDNACT were determined in 10 mM Tris pH 7.6 and 50 mM KCI. […]
Table 3: Determined slopes and corresponding quantum yields for the two reference compounds Alexa Flour® 647 and Atto 655 and for 6-TramTO-3 with and without dsDNACT.

Data set [4] addresses dsDNAhGC (double-stranded DNA hairpin with the consensus sequence GGCCC). The experiment in a line: Fluorescence titration with hairpin dsDNAhGC, binding affinity by DynaFit. Particulars: 1 µM dye in 10 mM Tris pH 7.6 and 50 mM KCI, 20°C, emission at 650 nm, 1:1 binding model, read-out: binding affinity (KD, apparent dissociation constant). As to the method:
as §1, §2, §3

Broadly, the ΔTm is the shift of the melting midpoint relative to a reference. On to `CC[n+]1ccc(/C=C/C=C2\Sc3ccccc3N2CCCCCCn2cc(CN)nn2)c2ccccc21.[I-]` [6-TramTO-3, 4-((1E,3Z)-3-(3-(6-(4-(aminomethyl)-1H-1,2,3-triazol-1-yl)hexyl)benzo[d]thiazol-2(3H)-ylidene)prop-1-en-1-yl)-1-ethylquinolin-1-ium iodide], for which, in the data set on dsDNACT [1] (45 µM dsDNACT with 1.8 µM dye in 10 mM Tris pH 7.5, dsDNACT alone 68.12°C), the “melting point of dsDNACT with addition of dye” value was found to be 72.66 °C. Moreover, the ΔTm with dsDNACT [1] (dsDNACT stabilization upon dye binding, 45 µM dsDNACT, 1.8 µM dye, 10 mM Tris pH 7.5) was 5 °C. Further, the Kd in data set [2] is 114 ± 30 nM; in data set [4], 104 ± 54 nM. Also, the “quantum yield (ΦF)” value in the data set on dsDNACT [3] is on record as 0.27.

The values are drawn from EP3572468B1, “CYANINE DYES AND THEIR USAGE FOR IN VIVO STAINING OF MICROORGANISMS” (PHILIPPS-UNIVERSITÄT MARBURG, priority 2018, dated 2019).
